Among the test systems are COLO 205; DMS-273; HCT-15; HOP-92; KM12; MOLT-4; Malme-3M; NCI-H226; RPMI-8226; SF-268; SK-MEL-5; SK-OV-3; SN12C; SR; SW-620; TK-10; UACC-62; A498; BT-549; MDA-MB-435.
Holding throughout (assay): NCI tumour cell line growth inhibition, 48 h

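Cultured in 96-well plates, cells were exposed to test compound for 48 hours across five concentrations. GI50 is the concentration that inhibits growth by half.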 The source made the active and inactive calls. Rule as the data show it: active = GI50 up to about 1.1 µM and inactive = higher. Where only a bound is given, the exact number is not on record here.

As to `Cc1ccc(S(=O)(=O)n2c(-c3ccccc3)c(-c3ccccc3)c3ccccc32)cc1`, the GI50 with COLO 205 is > 100 µM (inactive); with DMS-273 it was > 100 µM (inactive); in the assay on HCT-15, greater than 100 µM; with HOP-92 it was 3.08 µM (inactive); in the assay with KM12, > 100 µM (inactive); in the assay on MOLT-4 it was > 100 µM (inactive). Besides, the GI50 was > 100 µM (inactive) with Malme-3M; > 100 µM (inactive) in the assay with NCI-H226; 23.1 µM (inactive) with RPMI-8226; > 100 µM (inactive) in the assay with SF-268; 20.3 µM (inactive) in the assay with SK-MEL-5; 5.32 µM (inactive) in the assay on SK-OV-3. Further, the GI50 in the assay with SN12C was > 100 µM (inactive); in the assay on SR, 7.31 µM (inactive); with SW-620, > 100 µM (inactive); in the assay on TK-10, > 100 µM (inactive); in the assay on UACC-62, > 100 µM (inactive).
As for `O=C(CCc1n[nH]c(=S)o1)Nc1cc(Cl)c(Cl)cc1Cl`, the GI50 in the assay with A498 is 36.9 µM (inactive); in the assay with COLO 205, 31.8 µM (inactive); in the assay on DMS-273, 24.3 µM (inactive); in the assay with HCT-15 it was 22.2 µM; in the assay on HOP-92, 48.8 µM (inactive); in the assay with KM12 it was 87.9 µM (inactive). For the same compound, the GI50 in the assay with MOLT-4 is 45 µM (inactive); in the assay with Malme-3M, > 100 µM (inactive); in the assay with NCI-H226, 66.4 µM (inactive); with RPMI-8226, 20.5 µM (inactive); in the assay on SF-268, 26.5 µM (inactive); with SK-MEL-5, 50.9 µM (inactive). The GI50 in the assay with SK-OV-3 was > 100 µM (inactive); in the assay on SN12C it was > 100 µM (inactive); in the assay with SW-620 it was 12.9 µM (inactive); in the assay on TK-10, 42.5 µM (inactive); with UACC-62, 21.9 µM (inactive).
As for `O=C(COc1ccccc1Cl)N1N=C(c2ccc(Cl)cc2)CC1(O)c1ccccc1` (stereo not drawn), the GI50 is > 100 µM (inactive) in the assay with COLO 205; > 100 µM (inactive) in the assay with DMS-273; greater than 100 µM in the assay on HCT-15; > 100 µM (inactive) in the assay with HOP-92; > 100 µM (inactive) with KM12; > 100 µM (inactive) in the assay on MOLT-4. The GI50 with Malme-3M, in the assay on NCI-H226, with RPMI-8226, in the assay on SF-268, in the assay on SK-OV-3 and in the assay on SN12C was > 100 µM (inactive) in each case. In addition, the GI50 in the assay with SR, in the assay on SW-620, in the assay on TK-10 and with UACC-62 was > 100 µM (inactive) each time.
Take `COc1cc(C(C#N)NNc2nc(C)cc(O)n2)cc(OC)c1OC` (stereo not drawn): the GI50 is > 100 µM (inactive) with COLO 205; > 100 µM (inactive) in the assay with DMS-273; greater than 100 µM in the assay on HCT-15; 51.6 µM (inactive) in the assay on HOP-92; > 100 µM (inactive) with KM12; > 100 µM (inactive) in the assay with Malme-3M. The GI50 in the assay with NCI-H226, in the assay with RPMI-8226, in the assay with SF-268, in the assay on SK-MEL-5, in the assay with SK-OV-3 and in the assay with SN12C was > 100 µM (inactive) in each case. Also, the GI50 in the assay on SR is 37.5 µM (inactive); with SW-620, > 100 µM (inactive); with TK-10, > 100 µM (inactive); with UACC-62 it was > 100 µM (inactive).
With `CCOc1ccc([Se][Se]c2ccc(OCC)cc2)cc1`, the GI50 in the assay on COLO 205 was > 100 µM (inactive); in the assay on DMS-273 it was 79.1 µM (inactive); in the assay with HCT-15, 82.4 µM; with KM12 it was > 100 µM (inactive); in the assay with Malme-3M it was > 100 µM (inactive); in the assay on NCI-H226, 44.2 µM (inactive). Moreover, the GI50 is 28.1 µM (inactive) with RPMI-8226; 70.1 µM (inactive) in the assay on SF-268; > 100 µM (inactive) with SN12C; > 100 µM (inactive) with SR; > 100 µM (inactive) in the assay on SW-620; > 100 µM (inactive) with TK-10. In addition, the GI50 in the assay with UACC-62 was 95.7 µM (inactive).
Take `Cc1ccc(NC(=O)C(=O)Cc2nc3ccccc3o2)c(C)c1`: the GI50 is > 100 µM (inactive) in the assay with COLO 205; > 100 µM (inactive) in the assay on DMS-273; greater than 100 µM in the assay with HCT-15; > 100 µM (inactive) in the assay on HOP-92; > 100 µM (inactive) in the assay with KM12; > 100 µM (inactive) in the assay with Malme-3M. Also, the GI50 in the assay on NCI-H226, in the assay on RPMI-8226, in the assay with SF-268, in the assay with SK-OV-3, with SN12C and with SW-620 was > 100 µM (inactive) throughout. For the same compound, the GI50 with TK-10 and in the assay with UACC-62 was > 100 µM (inactive) in each case.
Take `COc1cc2c(cc1O)[C@H](C)C(c1ccccc1OC)O2` (stereo partly drawn): the GI50 is 4.49 µM (inactive) in the assay with A498; 6.97 µM (inactive) with COLO 205; 2.67 µM (inactive) with DMS-273; 3.34 µM with HCT-15; 8.2 µM (inactive) in the assay on HOP-92; 3.87 µM (inactive) with KM12. Moreover, the GI50 is 4.65 µM (inactive) in the assay with MOLT-4; 4.14 µM (inactive) in the assay on Malme-3M; 22.4 µM (inactive) with NCI-H226; 2.64 µM (inactive) with RPMI-8226; 5.75 µM (inactive) in the assay with SF-268; 3.16 µM (inactive) in the assay on SK-MEL-5. Moreover, the GI50 is 3.01 µM (inactive) in the assay with SK-OV-3, 3.27 µM (inactive) with SW-620, 20.3 µM (inactive) in the assay with TK-10 and 3.33 µM (inactive) in the assay on UACC-62.
`O=C1c2cccc3cc([N+](=O)[O-])cc(c23)C(=O)N1Nc1ccc([N+](=O)[O-])cc1[N+](=O)[O-]`: the GI50 is 18.4 µM (inactive) in the assay with A498; 19.4 µM (inactive) in the assay with BT-549; 11.5 µM (inactive) in the assay on COLO 205; 14.5 µM with HCT-15; 17.9 µM (inactive) in the assay with HOP-92; 14.6 µM (inactive) with KM12. For the same compound, the GI50 with MDA-MB-435 is 20.2 µM (inactive); in the assay with MOLT-4, 1.97 µM (inactive); in the assay with Malme-3M it was 20.1 µM (inactive); in the assay on NCI-H226, 14.5 µM (inactive); in the assay with RPMI-8226 it was 12.8 µM (inactive); with SF-268, 21.7 µM (inactive). The GI50 with SK-MEL-5 was 13 µM (inactive); in the assay with SK-OV-3 it was > 31.6 µM (inactive); with SN12C it was 22.8 µM (inactive); in the assay with SR, 2.64 µM (inactive); in the assay with SW-620 it was 10 µM (inactive); in the assay with TK-10 it was 31.8 µM (inactive). Further, the GI50 in the assay on UACC-62 was 13.6 µM (inactive).
`O=C1CCC2CCc3cccc4oc1c2c34` (stereo not drawn): the GI50 with A498 is > 100 µM (inactive); with COLO 205 it was > 100 µM (inactive); in the assay with DMS-273, > 100 µM (inactive); in the assay with HCT-15, greater than 100 µM; in the assay on HOP-92, 75.5 µM (inactive); in the assay on MOLT-4, 96.2 µM (inactive). The GI50 in the assay on RPMI-8226, in the assay with SK-MEL-5, with SK-OV-3, in the assay with SN12C, with SW-620 and in the assay on TK-10 was > 100 µM (inactive) in each case. Besides, in the assay with UACC-62, the GI50 was > 100 µM (inactive).
As for `O=[PH](O)c1ccsc1`, the GI50 in the assay with A498 was > 100 µM (inactive); in the assay with COLO 205 it was > 100 µM (inactive); in the assay with DMS-273, > 100 µM (inactive); in the assay on HCT-15, greater than 100 µM; in the assay on HOP-92 it was 86.5 µM (inactive); in the assay on MOLT-4 it was > 100 µM (inactive). Besides, the GI50 in the assay with RPMI-8226, with SF-268, with SK-MEL-5, in the assay on SK-OV-3, in the assay with SN12C and in the assay on SW-620 was > 100 µM (inactive) in each case. Besides, the GI50 with TK-10 and in the assay on UACC-62 was > 100 µM (inactive) each time.
Consider `COc1ccc2nc3cc(Cl)ccc3c(NCCCN(C)CCCNc3ccc4ncn5c6ccccc6c(=O)c3c45)c2c1`, for which the GI50 in the assay with A498 was 4.22 µM (inactive); in the assay on BT-549, 0.0822 µM (active); in the assay with COLO 205, 0.0391 µM (active); in the assay with HCT-15, 0.0476 µM; with HOP-92, 3.26 µM (inactive); in the assay on KM12 it was 0.123 µM (active). Further, the GI50 was 0.183 µM (active) in the assay with MDA-MB-435; 0.00264 µM (active) with MOLT-4; 2.69 µM (inactive) with Malme-3M; 0.395 µM (active) in the assay on NCI-H226; 0.0656 µM (active) with RPMI-8226; 0.246 µM (active) with SF-268. The GI50 is 0.366 µM (active) with SK-MEL-5; 2.72 µM (inactive) with SK-OV-3; 0.0302 µM (active) with SN12C; 0.019 µM (active) with SR; 0.00573 µM (active) in the assay with SW-620; 0.148 µM (active) with TK-10. Moreover, in the assay with UACC-62, the GI50 was 1.92 µM (inactive).
For the compound `O=C(CN(c1ccccc1)c1ccccc1)n1nnc2ccccc21`, the GI50 was 36.9 µM (inactive) in the assay with COLO 205; 39.9 µM (inactive) with DMS-273; 39.7 µM in the assay with HCT-15; 28.2 µM (inactive) in the assay on MOLT-4; 46.3 µM (inactive) with Malme-3M; 27.5 µM (inactive) in the assay with NCI-H226. The GI50 in the assay on RPMI-8226 is 34.8 µM (inactive); with SF-268, 28.4 µM (inactive); in the assay with SK-MEL-5 it was 20.7 µM (inactive); in the assay on SK-OV-3, > 100 µM (inactive); with SN12C it was 53 µM (inactive); in the assay on SR it was 24.8 µM (inactive). In addition, the GI50 was 30 µM (inactive) in the assay with SW-620, > 100 µM (inactive) in the assay with TK-10 and 41.3 µM (inactive) in the assay with UACC-62.
`Cc1cc(N(CCC#N)CCC#N)ccc1/C=N/NC(=O)c1ccccc1`: the GI50 with A498 was 10.1 µM (inactive); in the assay on BT-549, 42.7 µM (inactive); with COLO 205, 15.7 µM (inactive); with HCT-15 it was 5.28 µM; in the assay with HOP-92 it was 76.4 µM (inactive); in the assay on KM12 it was 3.54 µM (inactive). In addition, the GI50 is 2.42 µM (inactive) in the assay on MDA-MB-435; 24.3 µM (inactive) with MOLT-4; 33.2 µM (inactive) in the assay on Malme-3M; 20.2 µM (inactive) in the assay with NCI-H226; 58.1 µM (inactive) in the assay with RPMI-8226; > 48.8 µM (inactive) with SF-268. The GI50 is 22 µM (inactive) in the assay on SK-MEL-5; 18.5 µM (inactive) in the assay with SK-OV-3; 28.5 µM (inactive) with SN12C; 1.34 µM (inactive) with SR; 8.38 µM (inactive) in the assay on SW-620; 48.3 µM (inactive) in the assay on TK-10. The GI50 in the assay with UACC-62 is 10.4 µM (inactive).

Values taken from ChEMBL document CHEMBL1201862, “PubChem BioAssay data set” (2004).
